# Target: T1, human PAR4 (Homo sapiens, UniProt Q96RI0)
# T1 construct: expressed in transfected cells; host or cells: HEK293 PAR4 Clone 1.2A (BMS Arctic ID 383940)
# T1 sequence (Q96RI0 18-385): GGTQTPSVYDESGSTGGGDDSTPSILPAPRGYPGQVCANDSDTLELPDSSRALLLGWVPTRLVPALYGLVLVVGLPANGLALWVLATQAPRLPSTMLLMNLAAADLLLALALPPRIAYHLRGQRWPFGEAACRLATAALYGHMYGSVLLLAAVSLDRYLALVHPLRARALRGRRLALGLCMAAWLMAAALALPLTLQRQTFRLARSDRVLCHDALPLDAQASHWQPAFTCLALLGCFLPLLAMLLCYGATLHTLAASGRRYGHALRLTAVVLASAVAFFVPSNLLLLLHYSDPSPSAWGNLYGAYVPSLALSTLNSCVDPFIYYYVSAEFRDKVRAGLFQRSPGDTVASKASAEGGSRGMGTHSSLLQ
# Assay: PAR4 FLIPR assay: antagonism of agonist-peptide-induced calcium mobilization in PAR4-expressing HEK293 cells
# Assay type: cell-based
# Conditions: H-Ala-Phe(4-F)-[…]NH2-induced intracellular calcium mobilization, 11-point curves
row,SMILES,IC50 [nM]
1,"COCc1cnc2c(-c3cc4ccccc4o3)cc(C)cc2n1 [Example 195, 5-(benzofuran-2-yl)-2-(methoxymethyl)-7-methylquinoxaline]",32
2,"COc1cnc2c(-c3nc4c(C)cc(OCCOC(=O)Nc5cccnc5)nc4s3)cc(C)cc2n1 [Example 196, 2-((2-(2-methoxy-7-methylquinoxalin-5-yl)-7-methylthiazolo[5,4-b]pyridin-5-yl)oxy)ethyl pyridin-3-ylcarbamate]",2.3
3,"COc1cnc2c(-c3nc4c(C)cc(OCCOC(=O)Nc5ccc(C#N)nc5)nc4s3)cc(C)cc2n1 [Example 197, 2-((2-(2-methoxy-7-methylquinoxalin-5-yl)-7-methylthiazolo[5,4-b]pyridin-5-yl)oxy)ethyl (6-cyanopyridin-3-yl)carbamate]",1.3
4,"COc1cnc2c(-c3nc4cc(F)c(OCCOC(=O)Nc5ccc(C#N)nc5)nc4s3)cc(C)cc2n1 [Example 198, 2-((6-fluoro-2-(2-methoxy-7-methylquinoxalin-5-yl)thiazolo[5,4-b]pyridin-5-yl)oxy)ethyl (6-cyanopyridin-3-yl)carbamate]",0.6
5,"COCc1cnc2c(-c3nc4ccc(OC)cc4s3)cc(Cl)cc2n1 [Example 201, 2-(7-chloro-2-(methoxymethyl)quinoxalin-5-yl)-6-methoxybenzo[d]thiazole]",1.3
6,"COCc1cnc2c(-c3nc4ccc(OC)cc4s3)cc(Cl)cc2n1 [Example 202, 2-(7-chloro-2-(methoxymethyl)quinoxalin-5-yl)-6-methoxybenzo[d]thiazole]",0.9
7,"COCc1cnc2c(-c3nc4c(Cl)cc(OC)cc4s3)cc(Cl)cc2n1 [Example 210, 4-chloro-2-(7-chloro-2-(methoxymethyl)quinoxalin-5-yl)-6-methoxybenzo[d]thiazole]",0.3
8,"COc1cc(C)c2nc(-c3cc(C#N)cc4nc(OC)cnc34)sc2c1 [Example 211, 3-methoxy-8-(6-methoxy-4-methylbenzo[d]thiazol-2-yl)quinoxaline-6-carbonitrile]",21
9,"COCc1cnc2c(-c3nc4c(Cl)cc(OC)cc4s3)cccc2n1 [Example 212, 4-chloro-6-methoxy-2-(2-(methoxymethyl)quinoxalin-5-yl)benzo[d]thiazole]",2.4
10,"COc1cnc2c(-c3nc4c(F)c(F)c(OC)cc4s3)cc(Cl)cc2n1 [Example 214, 2-(7-chloro-2-methoxyquinoxalin-5-yl)-4,5-difluoro-6-methoxybenzo[d]thiazole]",4.3
11,"COc1cnc2c(-c3nc4c(Cl)c(F)c(OC)cc4s3)cc(Cl)cc2n1 [Example 215, 4-chloro-2-(7-chloro-2-methoxyquinoxalin-5-yl)-5-fluoro-6-methoxybenzo[d]thiazole]",2.9
12,"COc1cnc2c(-c3nc4c(Cl)c(F)c(OC)cc4s3)c(C)c(C)cc2n1 [Example 216, 4-chloro-5-fluoro-6-methoxy-2-(2-methoxy-6,7-dimethylquinoxalin-5-yl)benzo[d] thiazole]",160
13,"COc1cnc2c(-c3nc4c(F)c(F)c(OC)cc4s3)cc(C#N)cc2n1 [Example 217, 8-(4,5-difluoro-6-methoxybenzo[d]thiazol-2-yl)-3-methoxyquinoxaline-6-carbonitrile]",18
14,"COc1cnc2c(-c3nc4c(Cl)c(F)c(OC)cc4s3)cc(CO)cc2n1 [Example 218, (8-(4-chloro-5-fluoro-6-methoxybenzo[d]thiazol-2-yl)-3-methoxyquinoxalin-6-yl)methanol]",2.5
15,"COc1cnc2c(-c3nc4c(C)c(C)c(OC)cc4s3)cc(CO)cc2n1 [Example 219, (3-methoxy-8-(6-methoxy-4,5-dimethylbenzo [d]thiazol-2-yl)quinoxalin-6-yl)methanol]",5.5
16,"COc1cnc2c(-c3nc4c(F)c(F)c(OC)cc4s3)cc(CO)cc2n1 [Example 220, (8-(4,5-difluoro-6-methoxybenzo[d]thiazol-2-yl)-3-methoxyquinoxalin-6-yl)methanol]",2.6

# Second part, the compound after the results:
row,IC50 [nM],SMILES
1,2.5,"COc1cnc2c(-c3nc4c(C)cc(OCCNS(=O)(=O)c5ccc(F)cc5)nc4s3)cc(C)cc2n1 [Example 194, 4-fluoro-N-(2-((2-(2-methoxy-7-methylquinoxalin-5-yl)-7-methylthiazolo[5,4-b]pyridin-5-yl)oxy)ethyl)benzenesulfonamide]"
2,2.5,"COc1cnc2c(-c3nc4c(C)cc(OCCNS(=O)(=O)c5ccc(F)cc5)cc4s3)cc(Cl)cc2n1 [Example 199, N-(2-((2-(7-chloro-2-methoxyquinoxalin-5-yl)-4-methylbenzo[d]thiazol-6-yl)oxy)ethyl)-4-fluorobenzenesulfonamide]"
3,1.6,"COCc1cnc2c(-c3nc4c(C)cc(OCCNS(=O)(=O)c5ccc(F)cc5)cc4s3)cc(Cl)cc2n1 [Example 200, N-(2-((2-(7-chloro-2-(methoxymethyl)quinoxalin-5-yl)-4-methylbenzo[d]thiazol-6-yl)oxy)ethyl)-4-fluorobenzenesulfonamide]"
4,4.1,"COCc1cnc2c(-c3nc4c(C)cc(OC)cc4s3)cc(OC(F)(F)F)cc2n1 [Example 203, 6-methoxy-2-(2-(methoxymethyl)-7-(trifluoromethoxy)quinoxalin-5-yl)-4-methylbenzo[d] thiazole]"
5,3.1,"COCc1cnc2c(-c3nc4c(C)cc(OC)cc4s3)cc(C(=O)OC)cc2n1 [Example 204, methyl 8-(6-methoxy-4-methylbenzo[d]thiazol-2-yl)-3-(methoxymethyl) quinoxaline-6-carboxylate]"
6,51,"COCc1cnc2c(-c3nc4c(C)cc(OCCNS(=O)(=O)c5ccc(F)cc5)cc4s3)cc(C(=O)OC)cc2n1 [Example 205, methyl 8-(6-(2-(4-fluorophenylsulfonamido)ethoxy)-4-methylbenzo[d]thiazol-2-yl)-3-(methoxymethyl)quinoxaline-6-carboxylate]"
7,0.7,"COCc1cnc2c(-c3nc4c(C)cc(OC)cc4s3)cc(F)cc2n1 [Example 206, 2-(7-fluoro-2-(methoxymethyl)quinoxalin-5-yl)-6-methoxy-4-methylbenzo[d]thiazole]"
8,0.9,"COCc1cnc2c(-c3nc4c(C)cc(OCCNS(=O)(=O)c5ccc(F)cc5)cc4s3)cc(F)cc2n1 [Example 207, 4-fluoro-N-(2-((2-(7-fluoro-2-(methoxymethyl)quinoxalin-5-yl)-4-methylbenzo[d]thiazol-6-yl)oxy)ethyl)benzenesulfonamide]"
9,1.1,"COCc1cnc2c(-c3nc4c(C)cc(OC)cc4s3)cc(C(F)(F)F)cc2n1 [Example 208, 6-methoxy-2-(2-(methoxymethyl)-7-(trifluoromethyl)quinoxalin-5-yl)-4-methylbenzo[d]thiazole]"
10,1.1,"COCc1cnc2c(-c3nc4c(C)cc(OCCNS(=O)(=O)c5ccc(F)cc5)cc4s3)cc(C(F)(F)F)cc2n1 [Example 209, 4-fluoro-N-(2-((2-(2-(methoxymethyl)-7-(trifluoromethyl)quinoxalin-5-yl)-4-methylbenzo[d]thiazol-6-yl)oxy)ethyl)benzenesulfonamide]"
11,5.8,"COCc1cnc2c(-c3nc4c(C)cc(OCCNS(=O)(=O)c5ccc(F)cc5)cc4s3)cccc2n1 [Example 213, 4-fluoro-N-(2-((2-(2-(methoxymethyl)quinoxalin-5-yl)-4-methylbenzo[d]thiazol-6-yl)oxy)ethyl) benzenesulfonamide]"

# Reference: patent US12060347B2 (BRISTOL-MYERS SQUIBB COMPANY, priority 2016, dated 2024)
